The results in this text go back to US10239832B2, “N-(1-hydroxy-3-(pyrrolidinyl)propan-2-yl)pyrrolidine-3-carboxamide derivatives as glucosylceramide synthase inhibitors” (BIOMARIN PHARMACEUTICAL INC., priority 2013, dated 2019).

The pIC50 is the negative decadic logarithm of the IC50, by convention in mol/L.

The target of this assay is T1, GCS (Canis lupus familiaris, UniProt A0A8I3MXG6).
T1 construct: endogenous in cells; host or cells: MDCK (Madin-Darby canine kidney) cells, whole-cell lysate
T1 sequence (A0A8I3MXG6 1-394): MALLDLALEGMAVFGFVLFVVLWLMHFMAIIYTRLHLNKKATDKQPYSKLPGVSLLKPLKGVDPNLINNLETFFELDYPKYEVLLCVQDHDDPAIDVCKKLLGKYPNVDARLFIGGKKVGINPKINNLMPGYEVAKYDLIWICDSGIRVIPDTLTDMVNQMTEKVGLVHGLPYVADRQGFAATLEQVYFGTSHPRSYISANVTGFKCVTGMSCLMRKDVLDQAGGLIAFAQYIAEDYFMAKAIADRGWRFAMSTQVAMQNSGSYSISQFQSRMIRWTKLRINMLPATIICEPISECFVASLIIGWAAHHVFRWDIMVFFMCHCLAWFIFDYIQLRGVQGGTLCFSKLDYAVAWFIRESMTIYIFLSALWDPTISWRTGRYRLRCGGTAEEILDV
The assay is described as follows: GCS enzymatic assay (MDCK cell lysate, NBD-ceramide to glucosylceramide, LC/MS). The format is biochemical, canine. Conditions: Table 2, the table does not say which of the assays; for pIC50: class symbols A, B, C, read-out: Data Range (IC50 values); for Data Range (% inhibition): class symbols D, E, F, NA (not active). The method in brief:
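IC50 or percent inhibition came from LC/MS/MS (ESI+, MRM) of NBD-ceramide and glucosylceramide, with tolbutamide as internal standard. The reaction used MDCK (canine) cell lysate as the enzyme source and was ended with acetonitrile. Mock wells received 0.1% DMSO.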

pIC50: −log10 of the molar value.

Consider `O=C(N[C@H](CN1CCCC1)[C@H](O)c1ccc(OCCN2CCC2)c(Cl)c1)[C@@H]1CCN(c2ccc(Cl)cc2)C1` [Compound 60, (R)-N-((1R,2R)-1-(4-(2-(azetidin-1-yl)ethoxy)-3-chlorophenyl)-1-hydroxy-3-(pyrrolidin-1-yl)propan-2-yl)-1-(4-chlorophenyl)pyrrolidine-3-carboxamide], for which the pIC50 is 7.52 to 9.00.

As for `O=C(N[C@H](CN1CCCC1)[C@H](O)c1ccc(OCCN2CCC2)c(Cl)c1)[C@H]1CCN(c2ccc(Cl)cc2)C1` [Compound 60A, (S)-N-((1R,2R)-1-(4-(2-(azetidin-1-yl)ethoxy)-3-chlorophenyl)-1-hydroxy-3-(pyrrolidin-1-yl)propan-2-yl)-1-(4-chlorophenyl)pyrrolidine-3-carboxamide], the “Data Range (% inhibition)” value is given as “NA (not active—a negative value was generated for % inhibition)”.

Consider `Cn1ncc2ccc(N3CC[C@@H](C(=O)N[C@H](CN4CCCC4)[C@H](O)c4ccc5c(c4)OCCO5)C3)cc21` [Compound 61, (R)-N-((1R,2R)-1-(2,3-dihydrobenzo[b][1,4]dioxin-6-yl)-1-hydroxy-3-(pyrrolidin-1-yl)propan-2-yl)-1-(1-methyl-1H-indazol-6-yl)pyrrolidine-3-carboxamide], for which the “Data Range (% inhibition)” value is given as “NA (not active—a negative value was generated for % inhibition)”.

In the case of `Cn1ncc2ccc(N3CCC(C(=O)N[C@H](CN4CCCC4)[C@H](O)c4ccc5c(c4)OCCO5)C3)cc21` (stereo partly drawn) [Compound 61C, N-((1R,2R)-1-(2,3-dihydrobenzo[b][1,4]dioxin-6-yl)-1-hydroxy-3-(pyrrolidin-1-yl)propan-2-yl)-1-(1-methyl-1H-indazol-6-yl)pyrrolidine-3-carboxamide], the negative logarithm of the IC50 (pIC50) is 7.52 to 9.00.

`Cn1ncc2ccc(N3CC[C@H](C(=O)N[C@H](CN4CCCC4)[C@H](O)c4ccc5c(c4)OCCO5)C3)cc21` [Compound 61D, (S)-N-((1R,2R)-1-(2,3-dihydrobenzo[b][1,4]dioxin-6-yl)-1-hydroxy-3-(pyrrolidin-1-yl)propan-2-yl)-1-(1-methyl-1H-indazol-6-yl)pyrrolidine-3-carboxamide]: the pIC50 was 7.52 to 9.00.

`O=C(N[C@H](CN1CCCC1)[C@H](O)c1ccc(OC2COC2)nc1)[C@@H]1CCN(c2ccc(Cl)cc2)C1` [Compound 62, (R)-1-(4-chlorophenyl)-N-((1R,2R)-1-hydroxy-1-(6-(oxetan-3-yloxy)pyridin-3-yl)-3-(pyrrolidin-1-yl)propan-2-yl)pyrrolidine-3-carboxamide]: the “Data Range (% inhibition)” value is on record as “NA (not active—a negative value was generated for % inhibition)”.

For `CN1CCc2ccc(N3CC[C@@H](C(=O)N[C@H](CN4CCCC4)[C@H](O)c4ccc5c(c4)OCCO5)C3)cc2C1` [Compound 63, (R)-N-((1R,2R)-1-(2,3-dihydrobenzo[b][1,4]dioxin-6-yl)-1-hydroxy-3-(pyrrolidin-1-yl)propan-2-yl)-1-(2-methyl-1,2,3,4-tetrahydroisoquinolin-7-yl)pyrrolidine-3-carboxamide], the “Data Range (% inhibition)” value was “F (1-49% (or less than 50%))”.

As to `CN1CCc2ccc(N3CCC(C(=O)N[C@H](CN4CCCC4)[C@H](O)c4ccc5c(c4)OCCO5)C3)cc2C1` (stereo partly drawn) [Compound 63C, N-((1R,2R)-1-(2,3-dihydrobenzo[b][1,4]dioxin-6-yl)-1-hydroxy-3-(pyrrolidin-1-yl)propan-2-yl)-1-(2-methyl-1,2,3,4-tetrahydroisoquinolin-7-yl)pyrrolidine-3-carboxamide], the “Data Range (% inhibition)” value is on record as “F (1-49% (or less than 50%))”.

Take `CN1CCc2ccc(N3CC[C@H](C(=O)N[C@H](CN4CCCC4)[C@H](O)c4ccc5c(c4)OCCO5)C3)cc2C1` [Compound 63D, (S)-N-((1R,2R)-1-(2,3-dihydrobenzo[b][1,4]dioxin-6-yl)-1-hydroxy-3-(pyrrolidin-1-yl)propan-2-yl)-1-(2-methyl-1,2,3,4-tetrahydroisoquinolin-7-yl)pyrrolidine-3-carboxamide]: the “Data Range (% inhibition)” value is “NA (not active—a negative value was generated for % inhibition)”.

With `CC1(C)CCc2cc(N3CCC(C(=O)N[C@H](CN4CCCC4)[C@H](O)c4ccc5c(c4)OCCO5)C3)ccc2O1` (stereo partly drawn) [Compound 64, N-((1R,2R)-1-(2,3-dihydrobenzo[b][1,4]dioxin-6-yl)-1-hydroxy-3-(pyrrolidin-1-yl)propan-2-yl)-1-(2,2-dimethylchroman-6-yl)pyrrolidine-3-carboxamide], the “Data Range (% inhibition)” value was “F (1-49% (or less than 50%))”.

On to `O=C(N[C@H](CN1CCCC1)[C@H](O)c1ccc(OC2CC2)c(F)c1)[C@@H]1CCN(c2ccc(Cl)cc2)C1` [Compound 65, (R)-1-(4-chlorophenyl)-N((1R,2R)-1-(4-cyclopropoxy-3-fluorophenyl)-1-hydroxy-3-(pyrrolidin-1-yl)propan-2-yl)pyrrolidine-3-carboxamide], for which the pIC50 was 7.52 to 9.00.

For the compound `O=C(N[C@H](CN1CCCCC1)[C@H](O)c1ccc(OC2CC2)c(Cl)c1)[C@@H]1CCN(c2ccc(Cl)cc2)C1` [Compound 66, (R)-N-((1R,2R)-1-(3-chloro-4-cyclopropoxyphenyl)-1-hydroxy-3-(piperidin-1-yl)propan-2-yl)-1-(4-chlorophenyl)pyrrolidine-3-carboxamide], the “Data Range (% inhibition)” value is on record as “F (1-49% (or less than 50%))”.

Turning to `O=C(N[C@H](CN1CCCC1)[C@H](O)c1ccc(OC2CC2)c(Cl)c1)[C@@H]1CCN(c2ccc3ccccc3c2)C1` [Compound 67, (R)-N-((1R,2R)-1-(3-chloro-4-cyclopropoxyphenyl)-1-hydroxy-3-(pyrrolidin-1-yl)propan-2-yl)-1-(naphthalen-2-yl)pyrrolidine-3-carboxamide], the pIC50 is 7.52 to 9.00.

With `O=C(N[C@H](CN1CCCC1)[C@H](O)c1ccc(OC2CC2)c(Cl)c1)[C@H]1CCN(c2ccc3ccccc3c2)C1` [Compound 67C, (S)-N-((1R,2R)-1-(3-chloro-4-cyclopropoxyphenyl)-1-hydroxy-3-(pyrrolidin-1-yl)propan-2-yl)-1-(naphthalen-2-yl)pyrrolidine-3-carboxamide], the “Data Range (% inhibition)” value is “E (50-74% (or less than 75%))”.

Regarding `O=C(N[C@H](CN1CCCC1)[C@H](O)c1cc(F)c2c(c1)OCCO2)[C@@H]1CCN(c2ccc3ccccc3n2)C1` [Compound 68, (R)-N-((1R,2R)-1-(8-fluoro-2,3-dihydrobenzo[b][1,4]dioxin-6-yl)-1-hydroxy-3-(pyrrolidin-1-yl)propan-2-yl)-1-(quinolin-2-yl)pyrrolidine-3-carboxamide], the pIC50 was 7.52 to 9.00.

Regarding `O=C(N[C@H](CN1CCCC1)[C@H](O)c1ccc(OC2CC2)c(F)c1)[C@@H]1CCN(c2ccc(F)cc2)C1` [Compound 69, (R)-N-((1R,2R)-1-(4-cyclopropoxy-3-fluorophenyl)-1-hydroxy-3-(pyrrolidin-1-yl)propan-2-yl)-1-(4-fluorophenyl)pyrrolidine-3-carboxamide], the pIC50 is 7.52 to 9.00.

Take `O=C(N[C@H](CN1CCCC1)[C@H](O)c1ccc(OC2CC2)c(F)c1)[C@H]1CCN(c2ccc(F)cc2)C1` [Compound 69A, (S)-N-((1R,2R)-1-(4-cyclopropoxy-3-fluorophenyl)-1-hydroxy-3-(pyrrolidin-1-yl)propan-2-yl)-1-(4-fluorophenyl)pyrrolidine-3-carboxamide]: the “Data Range (% inhibition)” value was “F (1-49% (or less than 50%))”.

As for `O=C(N[C@H](CN1CCCC1)[C@H](O)c1ccc2c(c1)OCCO2)[C@@H]1CCN(c2ccc3ccccc3c2)C1` [Compound 70, (R)-N-((1R,2R)-1-(2,3-dihydrobenzo[b][1,4]dioxin-6-yl)-1-hydroxy-3-(pyrrolidin-1-yl)propan-2-yl)-1-(naphthalen-2-yl)pyrrolidine-3-carboxamide], the negative logarithm of the IC50 (pIC50) was 7.52 to 9.00.

In the case of `O=C(N[C@H](CN1CCCC1)[C@H](O)c1ccc2c(c1)OCCO2)[C@H]1CCN(c2ccc3ccccc3c2)C1` [Compound 70A, (S)-N-((1R,2R)-1-(2,3-dihydrobenzo[b][1,4]dioxin-6-yl)-1-hydroxy-3-(pyrrolidin-1-yl)propan-2-yl)-1-(naphthalen-2-yl)pyrrolidine-3-carboxamide], the “Data Range (% inhibition)” value is on record as “E (50-74% (or less than 75%))”.

Turning to `CC1(C)CCc2ccc(N3CC[C@@H](C(=O)N[C@H](CN4CCCC4)[C@H](O)c4ccc5c(c4)OCCO5)C3)cc2O1` [Compound 71, (R)-N-((1R,2R)-1-(2,3-dihydrobenzo[b][1,4]dioxin-6-yl)-1-hydroxy-3-(pyrrolidin-1-yl)propan-2-yl)-1-(2,2-dimethylchroman-7-yl)pyrrolidine-3-carboxamide], the pIC50 is 7.00 to 7.52.

Take `CC1(C)CCc2ccc(N3CCC(C(=O)N[C@H](CN4CCCC4)[C@H](O)c4ccc5c(c4)OCCO5)C3)cc2O1` (stereo partly drawn) [Compound 71E, N-((1R,2R)-1-(2,3-dihydrobenzo[b][1,4]dioxin-6-yl)-1-hydroxy-3-(pyrrolidin-1-yl)propan-2-yl)-1-(2,2-dimethylchroman-7-yl)pyrrolidine-3-carboxamide]: the “Data Range (% inhibition)” value is “E (50-74% (or less than 75%))”.

With `CC1(C)CCc2ccc(N3CC[C@H](C(=O)N[C@H](CN4CCCC4)[C@H](O)c4ccc5c(c4)OCCO5)C3)cc2O1` [Compound 71F, (S)-N-((1R,2R)-1-(2,3-dihydrobenzo[b][1,4]dioxin-6-yl)-1-hydroxy-3-(pyrrolidin-1-yl)propan-2-yl)-1-(2,2-dimethylchroman-7-yl)pyrrolidine-3-carboxamide], the “Data Range (% inhibition)” value is listed as “F (1-49% (or less than 50%))”.
